Columns and labels:
aged C57BL/6J mice = assay: Glucose tolerance; assay type: in vivo, mouse; details: between the two treatment groups; data not shown
SIRT1 [1] = molecular target: T1, SIRT1 (Homo sapiens, UniProt Q96EB6); assay: Acetylation of p53 (K382) via UV irradiation, western blot, IMR90 cells; assay type: cell-based; details: FIGS. 2G-2H
T1 construct: endogenous in cells; host or cells: U2OS cells; IMR90 cells
T1 sequence (Q96EB6 1-747): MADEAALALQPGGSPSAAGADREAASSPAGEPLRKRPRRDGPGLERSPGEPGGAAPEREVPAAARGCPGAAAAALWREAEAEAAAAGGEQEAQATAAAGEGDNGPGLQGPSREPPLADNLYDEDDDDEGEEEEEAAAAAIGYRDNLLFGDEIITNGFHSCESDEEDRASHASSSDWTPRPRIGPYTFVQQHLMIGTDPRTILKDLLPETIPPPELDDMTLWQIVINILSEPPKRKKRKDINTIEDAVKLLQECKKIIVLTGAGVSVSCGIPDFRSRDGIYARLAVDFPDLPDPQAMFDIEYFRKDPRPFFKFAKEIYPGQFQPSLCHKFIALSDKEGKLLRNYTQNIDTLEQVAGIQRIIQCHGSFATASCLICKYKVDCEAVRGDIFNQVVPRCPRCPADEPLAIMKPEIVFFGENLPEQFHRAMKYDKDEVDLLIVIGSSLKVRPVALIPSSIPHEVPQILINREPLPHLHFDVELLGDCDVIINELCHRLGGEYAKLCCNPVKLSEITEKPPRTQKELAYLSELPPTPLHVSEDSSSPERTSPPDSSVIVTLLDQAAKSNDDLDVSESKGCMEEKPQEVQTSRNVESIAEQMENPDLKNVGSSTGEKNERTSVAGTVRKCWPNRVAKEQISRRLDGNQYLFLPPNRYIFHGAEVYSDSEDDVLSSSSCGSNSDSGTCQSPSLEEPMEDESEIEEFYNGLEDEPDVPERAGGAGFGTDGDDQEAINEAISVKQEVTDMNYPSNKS
Method: (§1) U2OS cells (1.2×10^5 cells/dish) or IMR90 cells (3.0×10^5 cells/dish) were seeded into a 3.5 cm culture dish, and incubated with 0, 10, 25, 50, or 100 μM PN6 for 16 hours, before subjected to UVB irradiation at 7.5 mJ/m^2 (for U2OS cells) or 5.0 mJ/m^2 (for IMR90 cells) for 4 hours.
(§2) Cells were harvested with a 1.25× Laemmli buffer and lysed in RIPA lysis buffer containing 1% of Triton X-100 and a protease inhibitor cocktail, and total protein concentrations were measured with a protein assay kit. Proteins in the samples of the lysates with the same amounts of total protein were separated by sodium dodecyl sulfate polyacrylamide gel electrophoresis (SDS-PAGE) (10% polyacrylamide gels) and analyzed by immunoblotting. Primary antibodies against p53ac (K382) (1:1,000), p21 (1:1,000), and 3-actin (1:200,000) were applied to detect the corresponding proteins. Horseradish peroxidase (HRP)-conjugated secondary antibodies against mouse IgG were then incubated with the membranes, and proteins were visualized by chemiluminescence according to the manufacturer's instructions. Protein quantification was performed by software.

[2] = test system: sir2Δfob1Δ mutant strain of yeast; assay: RLS of sir2Δfob1Δ double deletion strain; assay type: cell-based, Saccharomyces cerevisiae; details: 25 μM; FIG. 2A
Method: The micromanipulation of the yeast cells was carried out as follows. Prior to analysis, yeast strains BY4741 (WT), BY4741-fob1Δ (fob1Δ), or BY4741-sir2Δfob1Δ (sir2Δfob1Δ) were plated onto fresh solid YEPD medium and grown at 30° C. for two days. Then, individual colonies were picked and grown in solid YEPD media containing: (1) dimethyl sulfoxide (DMSO), (2) 10, 25, or 50 μM PN6, or (3) 25 μM β-sitosterol at 30° C. overnight, and a small number of yeast cells were then plated onto a fresh YEPD plate for lifespan analysis. After overnight growth on the lifespan plates, the cells were arrayed on the plate using a micromanipulator and allowed to grow for approximately 3 hours. Virgin daughter cells were selected and subjected to lifespan analysis. In the lifespan experiments, the plates were incubated at 30° C. during the day and stored at 4° C. overnight. Each experiment consisted of more than 50 mother cells and was independently repeated three times.

SIRT1 [3] = molecular target: T1, SIRT1; assay: Acetylation of p53 (K382) via UV irradiation, western blot, U2OS cells; assay type: cell-based; details: 10-100 μM PN6, FIGS. 2C-2D
Method: as §1, §2

p21 = p21 expression in HUVECs, western blot; assay type: cell-based, human; details: HUVECs at PDL11, 1 or 2 μM; FIG. 3B
Method: For the population doubling (PD) assay, HUVECs (1×10^5 cells/3.5 cm dish) were propagated in the presence of DMSO (i.e., control) or PN6 (1 or 2 μM) until senescence (Day 41), and the cell numbers in each passage were recorded to generate a growth curve that represented the cumulative population doubling. The population doubling levels (PDLs) of HUVECs were calculated in every culture to indicate the proliferation capacity of HUVECs under the respective conditions. The population doublings (PDs) were estimated using the equation: PDL=3.32 (log (total viable cells at harvest/total viable cells at seeding). Also, HUVECs at passages PDL4 and PDL11 cultured in 0 μM (i.e., DMSO alone), 1 μM, or 2 μM PN6 were harvested for further analyses (e.g., western blot and SA-β-gal staining).
Cells were harvested with a 1.25× Laemmli buffer and lysed in RIPA lysis buffer containing 1% of Triton X-100 and a protease inhibitor cocktail, and total protein concentrations were measured with a protein assay kit. Proteins in the samples of the lysates with the same amounts of total protein were separated by sodium dodecyl sulfate polyacrylamide gel electrophoresis (SDS-PAGE) (10% polyacrylamide gels) and analyzed by immunoblotting. […] Protein quantification was performed by software.

SMILES: CCC(CC[C@@H](C)C1CCC2C3CC(=O)[C@H]4C[C@@H](O)CC[C@]4(C)C3CC[C@@]21C)C(C)C (stereo in doubt) [PN6, (24S)-3β-hydroxy-5α-stigmastan-6-one]
- glucose tolerance (aged C57BL/6J mice): no significant differences
- SIRT1 activity / acetylation of P53 at K382 (SIRT1 [1]): increased SIRT1 activity to reverse acetylation of P53 at K382
- extension of lifespan of sir2Δfob1Δ mutant strain [2]: unable to extend the lifespan
- degree of acetylation of P53 at K382 (SIRT1 [3]): decreased in a dose-dependent manner
- p21 expression level (p21): decreased dose-dependently

Reference: patent US20250009763A1, “METHODS FOR EXTENDING LIFESPAN AND/OR DELAYING AGING” (priority 2023, published 2025)
